US20170118998A1, “PESTICIDAL COMPOSITIONS AND METHODS FOR USING SAME” (priority 1998, published 2017)

Experiments:
Assay type in all cases: in vivo
American cockroaches [1] = assay: Test chemical applied directly to thorax of insect using Pasteur Pipette (Table 12); conditions: 1 drop applied directly to thorax; one value per insect
American cockroaches [2] = assay: Direct spray toxicity of rosemary oil, wintergreen oil and their blend (Example 1); conditions: sprayed with approximately 3.7 grams; one value per insect
Description: Studies were conducted to evaluate the individual toxicity, in terms of speed of action and mortality, of rosemary oil and wintergreen oil against American cockroaches, and then a blend of these two oils to determine if similar toxic effects could be obtained using a proprietary blend that was less expensive to produce and easier to employ in different end-use formulations. Methyl salicylate was used as wintergreen oil. American cockroaches were confined under a screened cap and then sprayed with approximately 3.7 grams of each test chemical using a trigger sprayer. Immediately after spraying, the insects were released into a large plastic container and observed for signs of toxicity. Three American cockroaches were used in each experiment. The times for immobilization (IM), knockdown (KD), and mortality were recorded for each test insect. An untreated control was provided.

[3] = test system: Melon Aphids Aphis gossypii; assay: Melon Aphids on squash (Table 11); conditions: 1 qt/acre, applied three times at one week interval
Description: A formulation (DR-A-034) consisting of 5% w/w rosemary oil, 22.5% w/w wintergreen oil, 22.5% w/w mineral oil, 0.5% w/w lecithin (emulsifier), and 49.5% w/w water was prepared and labeled Hexacide™. Hexacide™ was applied in dilute form at different rates per acre to the pests itemized below in various greenhouse and field studies. In all of these studies, positive controls consisting of conventional pesticides were utilized for comparative efficacy.
Randomized complete block design was used. Five replicates per treatment were performed. 100 gallons spray volume per acre (GPA). Latron CS-7 at 4 ml/gallon was added to all treatments. All foliar applied pesticidal compositions applied, except Admire and Platinum (soil insecticides). HEXACIDE™ Azadiractin and Pyganic applied three times at one week interval. Other products applied once.

Row | Structure (SMILES) | KD (knockdown time) (American cockroaches [1]) | Mortality (time) (American cockroaches [1]) | IM (time for immobilization) (American cockroaches [2]) | Mortality (time) (American cockroaches [2]) | Mean % Aphids per Leaf ([3]; 6 DAT) | Mean % Aphids per Leaf ([3]; 12 DAT) | Mean % Aphids per Leaf ([3]; Pretreatment)
1 | COC(=O)c1ccccc1O [100% Methyl Salicylate, Methyl salicylate] | no KD | >5 m | 45 s | >2 min | – | – | –
2 | C/C=C(\C)C(=O)O[C@H]1C[C@@H](OC(C)=O)[C@@]2(C(=O)OC)CO[C@H]3[C@@H](O)[C@@](C)([C@]45O[C@@]4(C)[C@H]4C[C@@H]5O[C@@H]5OC=C[C@@]54O)[C@H]4[C@]1(CO[C@]4(O)C(=O)OC)[C@@H]32 [Azadiractin] | – | – | – | – | 5.4 c % | 15.1 c % | 3.9 b %
